Assay results reported in patent publication US20060223837A1 (priority 2005, published 2006).

Experiments:
human VR1 [1] = target: T1, human VR1 (Homo sapiens, UniProt Q8NER1); test: Human VR1 [3H]RTX binding assay; details: for h Binding % I (1 μM) / inhibition at 1 µM: inhibition of [3H]RTX binding at 1 μM; for Ki: [3H]RTX binding, HEK293 membranes; for inhibition at 1 µM: read-out: h Binding % I (1 μM)
T1 construct: expressed in transfected cells; host or cells: HEK293
Procedure: Compounds of the present invention were tested for their ability to inhibit the binding of tritiated resiniferatoxin ([^3H] RTX) to human VR1 receptors in a [^3H] RTX binding assay, as previously described (Zhang, Sui-Po. Improved ligand binding assays for vanilloid receptors. PCT Int. Appl. (2002), WO 0233411 A1 20020425 AN 2002:315209; Grant, Elfrida R., Dubin, Adrienne E., Zhang, Sui-Po, Zivin, Robert A., Zhong, Zhong Simultaneous intracellular calcium and sodium flux imaging in human VR1-transfected human embryonic kidney cells: a method to resolve ionic dependence of VR1-mediated cell death. J. Pharmacol. Exp. ther., 2002, 300(1), 9-17.) HEK293 cells were transfected with human VR1 and washed with Hank's balanced Salt Solution, dissociated with cell dissociation buffer (Sigma), and then centrifuged at 1000× g for 5 min. Cell pellets were homogenized in cold 20 mM HEPES buffer (pH 7.4), containing 5.8 mM NaCl, 320 mM sucrose, 2 mM MgCl2, 0.75 CaCl2 and 5 mM KCl and centrifuged at 1000× g for 15 min. The resultant supernate was then centrifuged at 40000× g for 15 min. The pelleted membranes were stored in a freezer at −80 C.
Approximately 120 μg protein/ml from membranes were incubated with indicated concentrations of [^3H]RTX in 0.5 ml of the HEPES buffer (pH 7.4) containing 0.25 mg/mL fatty acid-free bovine serum albumin at 37 C for 60 min. After cooling the reaction mixture to 4 C, 0.1 mg (x-acid glycoprotein was added to each sample, which was incubated at 4 C for 15 min and then centrifuged at 18500× g for 15 min. The tip of the microcentrifuge tube containing the pellet was cut off. Bound radioactivity was quantified by scintillation counting. Non-specific binding was assessed in the presence of 200 nM unlabeled resiniferatoxin.
Data were calculated according to the equation: % inhibtion=(total binding−binding)*100/(total binding−non specific binding).
Ki values were calculated based on an average of duplicate measurements using a GraphPad Prism program.

human VR1 [2] = target: T1, human VR1; test: Human VR1 functional assay (FLIPR intracellular Ca2+); format: cell-based; details: for Emax at 12 µM: agonist response, read-out: % Response Relative to EC80 of Capsaicin (12 μM)
Procedure: The functional activity of the test compounds was determined by measuring changes in intracellular calcium concentration using a Ca^2+-sensitive fluorescent dye and FLIPR™ technology. Increases in Ca^2+ concentration were readily detected upon challenge with capsaicin. HEK293 Cells expressing human VR1 were grown on poly-D-lysine coated 384 well black-walled plates (BD 354663) and 1 day later loaded with Calcium 3 Dye for 35 min at 37 C, 5% CO2 and then for 25 min at room temperature, and subsequently tested for agonist-induced increases in intracellular Ca^2+ levels using FLIPR™ technology. Cells were challenged with test compounds (at varying concentrations, which are indicated in parentheses in the heading of the table below) and intracellular Ca^2+ was measured for 5 min prior to the addition of capsaicin to all wells to achieve a final concentration of eliciting an approximate 80% maximal response ([…]). EC50 or IC50 values were determined from dose-response studies. Curves were generated using the average of quadruplicate wells for each data point.

[3] = inhibition of capsaicin response, 10 μM
[4] = inhibition of capsaicin response

T1 sequence (Q8NER1 whole entry): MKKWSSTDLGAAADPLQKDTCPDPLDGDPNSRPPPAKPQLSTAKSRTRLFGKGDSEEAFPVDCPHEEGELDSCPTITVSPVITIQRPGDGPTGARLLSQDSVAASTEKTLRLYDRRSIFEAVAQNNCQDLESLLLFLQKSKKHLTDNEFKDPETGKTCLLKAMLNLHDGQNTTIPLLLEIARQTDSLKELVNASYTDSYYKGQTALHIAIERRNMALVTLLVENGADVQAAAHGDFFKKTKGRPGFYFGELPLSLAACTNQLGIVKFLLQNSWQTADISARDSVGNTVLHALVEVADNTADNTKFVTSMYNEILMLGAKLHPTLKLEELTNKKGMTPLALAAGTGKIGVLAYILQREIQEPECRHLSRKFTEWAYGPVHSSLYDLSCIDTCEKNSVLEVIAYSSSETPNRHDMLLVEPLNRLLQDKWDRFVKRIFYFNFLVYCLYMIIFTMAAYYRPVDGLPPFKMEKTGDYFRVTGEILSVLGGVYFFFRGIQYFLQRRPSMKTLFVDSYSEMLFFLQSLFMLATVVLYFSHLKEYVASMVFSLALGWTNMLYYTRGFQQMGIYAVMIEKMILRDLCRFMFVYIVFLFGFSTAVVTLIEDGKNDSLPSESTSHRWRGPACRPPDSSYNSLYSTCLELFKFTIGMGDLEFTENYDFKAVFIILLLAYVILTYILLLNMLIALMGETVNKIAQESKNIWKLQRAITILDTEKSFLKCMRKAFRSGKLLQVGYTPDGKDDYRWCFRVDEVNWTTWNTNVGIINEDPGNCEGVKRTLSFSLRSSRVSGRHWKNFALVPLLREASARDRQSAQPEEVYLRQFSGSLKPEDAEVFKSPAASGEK

Row | SMILES | h Binding % I (1 μM) (human VR1 [1]) [%] | further results
1 | CC(C)(C)c1ccc(CCC(=O)Nc2ccccc2-c2ccc(O)cc2)cc1 [Cpd 1] | 1 | h % I (10 μM) (human VR1 [2]; [3]): 45%
2 | CC(C)(C)c1ccc(CCC(=O)Nc2cccc(-c3ccc(O)cc3)c2)cc1 [Cpd 2] | 11 | h % I (10 μM) (human VR1 [2]; [3]): 41%
3 | CC(C)(C)c1ccc(CCC(=O)Nc2ccc(-c3ccc(O)cc3)cc2)cc1 [Cpd 3] |  | Ki (human VR1 [1]): 51 nM; inhibition at 1 µM (human VR1 [1]): 90%; Emax at 12 µM (human VR1 [2]): 65%; inhibition at 10 µM (human VR1 [2]; inhibition of capsaicin response, 10 μM, read-out: h % I (10 μM)): 44%
4 | CC(C)(C)c1ccc(CCC(=O)Nc2ccccc2-c2cccc(O)c2)cc1 [Cpd 4] | 1 | h % I (10 μM) (human VR1 [2]; [3]): 35%
5 | CC(C)(C)c1ccc(CCC(=O)Nc2cccc(-c3cccc(O)c3)c2)cc1 [Cpd 5] | 4 | h % I (10 μM) (human VR1 [2]; [3]): 35%
6 | CC(C)(C)c1ccc(CCC(=O)Nc2ccc(-c3cccc(O)c3)cc2)cc1 [Cpd 6, 3-(4-tert-butyl-phenyl)-N-(3′-hydroxy-biphenyl-4-yl)-propionamide] |  | Ki (human VR1 [1]): 86 nM; inhibition at 1 µM (human VR1 [1]): 67%; Emax at 12 µM (human VR1 [2]): 24%
7 | CC(C)(C)c1ccc(CCC(=O)Nc2cccc(-c3ccccc3O)c2)cc1 [Cpd 9] | 1 | h % I (10 μM) (human VR1 [2]; [3]): 16%
8 | CC(C)(C)c1ccc(CCC(=O)Nc2ccc(-c3cccc(CO)c3)cc2)cc1 [Cpd 23] | 40 | 
9 | CC(C)(C)c1ccc(CCC(=O)Nc2ccc(-c3cccc(C#N)c3)cc2)cc1 [Cpd 25] |  | Ki (human VR1 [1]): 103 nM; inhibition at 1 µM (human VR1 [1]): 94%
10 | COc1cccc(-c2ccc(NC(=O)CCc3ccc(C(C)(C)C)cc3)cc2)c1 [Cpd 27] |  | Ki (human VR1 [1]): 846 nM; inhibition at 1 µM (human VR1 [1]): 53%
11 | CC(C)(C)c1ccc(/C=C/C(=O)Nc2cccc(-c3cccc(C(N)=O)c3)c2)cc1 [Cpd 33] |  | Ki (human VR1 [1]): 171 nM; inhibition at 1 µM (human VR1 [1]): 82%
12 | NC(=O)c1cccc(-c2ccc(NC(=O)/C=C/c3ccc(C(F)(F)F)cc3)cc2)c1 [Cpd 47] | 1 | 
13 | Cc1cc(-c2cccc(C(N)=O)c2)ccc1NC(=O)CCc1ccc(C(C)(C)C)cc1 [Cpd 50] | 11 | 
14 | Cc1cc(NC(=O)CCc2ccc(C(C)(C)C)cc2)ccc1-c1cccc(C(N)=O)c1 [Cpd 51] | 19 | 
15 | CC(C)(C)c1ccc(CCC(=O)Nc2ccc(-c3cccc(C(N)=O)c3)cc2F)cc1 [Cpd 52] | 1 | 
16 | CC(C)(C)c1ccc(CCC(=O)Nc2ccc(-c3cccc(C(N)=O)c3)c(F)c2)cc1 [Cpd 53] | 27 | 
17 | CC(=O)Nc1cccc(-c2ccc(NC(=O)CCc3ccc(C(C)(C)C)cc3)c(C)c2)c1 [Cpd 54] | 5 | 
18 | CC(=O)Nc1cccc(-c2ccc(NC(=O)CCc3ccc(C(C)(C)C)cc3)c(F)c2)c1 [Cpd 56] | 16 | 
19 | CC(C)(C)c1ccc(CCC(=O)Nc2ccc(-c3cccc(C(N)=O)c3)cc2)s1 [Cpd 63] | 1 | 
20 | CC(=O)Nc1cccc(-c2ccc(NC(=O)CCc3ccc(C(C)(C)C)s3)cc2)c1 [Cpd 64] | 33 | 

Row | SMILES | h Binding % I (1 μM) (human VR1 [1]) [%] | further results
21 | CC(C)(C)c1ccc(CCC(=O)Nc2ccc(-c3cccc(C(N)=O)c3)cc2C(=O)O)cc1 [Cpd 66] | 1 | 
22 | CNC(=O)c1cccc(-c2ccc(NC(=O)CCc3ccc(C(C)(C)C)cc3)c(C(=O)O)c2)c1 [Cpd 67] | 1 | 
23 | CC(C)(C)c1ccc(CCC(=O)Nc2ccc(-c3cccc(O)c3)cc2C(=O)O)cc1 [Cpd 68] | 1 | 
24 | CC(C)(C)c1ccc(CCC(=O)Nc2cccc(-c3cccnc3)c2)cc1 [Cpd 106] | 1 | 
25 | CC(C)(C)c1ccc(CCC(=O)Nc2ccc(-c3ccccn3)cc2)cc1 [Cpd 110] |  | Ki (human VR1 [1]): 11.3 nM; inhibition at 1 µM (human VR1 [1]): 97%
26 | CC(C)(C)c1ccc(CCC(=O)Nc2ccc(-c3ncccn3)cc2)cc1 [Cpd 112] |  | Ki (human VR1 [1]): 216 nM; inhibition at 1 µM (human VR1 [1]): 68%
27 | CC(C)(C)c1ccc(CCC(=O)Nc2cccc(-c3cncnc3)c2)cc1 [Cpd 117] | 1 | 
28 | COc1ccc(-c2cccc(NC(=O)CCc3ccc(C(C)(C)C)cc3)c2)cn1 [Cpd 119] | 1 | 
29 | COc1ccc(-c2ccc(NC(=O)CCc3ccc(C(C)(C)C)cc3)cc2)cn1 [Cpd 121] | 36 | 
30 | CC(C)(C)c1ccc(CCC(=O)Nc2ccc(-c3cccc4[nH]ccc34)cc2)cc1 [Cpd 122] |  | Ki (human VR1 [1]): 335 nM; inhibition at 1 µM (human VR1 [1]): 64%
31 | CC(C)(C)c1ccc(CCC(=O)Nc2ccc(-c3ccc4cc[nH]c4c3)cc2)cc1 [Cpd 123] | 39 | 
32 | CC(C)(C)c1ccc(CCC(=O)Nc2ccc(-c3cccc(C(N)=O)c3)cn2)cc1 [Cpd 124] | 1 | 
33 | CC(=O)Nc1cccc(-c2ccc(NC(=O)CCc3ccc(C(C)(C)C)cc3)nc2)c1 [Cpd 125] | 1 | 
34 | CC(C)(C)c1ccc(CCC(=O)Nc2cccc(-c3cccc(O)c3)n2)cc1 [Cpd 126] | 9 | 
35 | CC(C)(C)c1ccc(CCC(=O)Nc2ccc(-c3cccc(C(N)=O)c3)nc2)cc1 [Cpd 127] | 16 | 
36 | CC(C)(C)c1ccc(CCC(=O)Nc2ncc(-c3cccc(C(N)=O)c3)cn2)cc1 [Cpd 130] | 1 | 
37 | CC(C)(C)c1ccc(CCC(=O)Nc2cnc(-c3cccc(C(N)=O)c3)cn2)cc1 [Cpd 131] | 1 | 
38 | CC(C)(C)c1ccc(CCC(=O)Nc2ccc(-c3cccc(CO)c3)nc2)cc1 [Cpd 134] | 25 | 
39 | CC(C)(C)c1ccc(CCC(=O)Nc2ccc(-c3ccncc3)cc2C(=O)O)cc1 [Cpd 139] | 1 | 
40 | CC(C)(C)c1ccc(CCC(=O)Nc2ccc(-c3ccncc3)cc2CO)cc1 [Cpd 140] | 1 | 

Row | SMILES | h Binding % I (1 μM) (human VR1 [1]) [%] | further results
41 | CC(C)(C)c1ccc(CCC(=O)Nc2ccc(-c3ccncc3)c(C(=O)O)c2)cc1 [Cpd 141] | 1 | 
42 | O=C(CCc1ccc(C(F)(F)F)cc1)Nc1ccc(-c2ccccc2O)nc1 [Cpd 146] | 8 | 
43 | CC(=O)Nc1cccc(-c2ccc(NC(=O)CCc3ccc(C(C)(C)C)cc3)c3ccncc23)c1 [Cpd 154] | 15 | 
44 | CC(C)(C)c1ccc(CCC(=O)Nc2ccc(-c3cccc(O)c3)c3cnccc23)cc1 [Cpd 155] | 89 | 
45 | CC(C)(C)c1ccc(CCC(=O)Nc2ccc(-c3ccncc3)c3cnccc23)cc1 [Cpd 156] | 33 | 
46 | O=C(CCc1ccc(C(F)(F)F)cc1)Nc1ccc(-c2cccc(O)c2)c2cnccc12 [Cpd 158] | 77 | 
47 | O=C(CCc1ccc(C(F)(F)F)cc1)Nc1ccc(-c2ccncc2)c2cnccc12 [Cpd 159] | 1 | 
48 | CC(C)(C)c1ccc(CCC(=O)Nc2ccc(-c3c[nH]cn3)cc2)cc1 [Cpd 192] | 50 | 
49 | CC(C)(C)c1ccc(CCC(=O)Nc2ccc(-c3cnco3)cc2)cc1 [Cpd 193] | 49 | 
50 | Cc1cc(C)n(-c2ccc(NC(=O)CCc3ccc(C(C)(C)C)cc3)cc2)n1 [Cpd 196] | 76 | 
51 | CC(C)(C)c1ccc(CCC(=O)Nc2ccc(-n3cnc(Cl)c3Cl)cc2)cc1 [Cpd 200] | 100 | 
52 | CC(C)(C)c1ccc(CCC(=O)Nc2ccc(-n3ccnc3)cc2)cc1 [Cpd 261] |  | Ki (human VR1 [1]): 311 nM
53 | Cc1cc(NC(=O)/C=C/c2ccc([S+]([O-])C(F)(F)F)cc2)cnc1-n1cnc(Cl)c1Cl (centres unmarked) [Cpd 274] |  | h % I (1 μM) (human VR1 [2]; [4]): 18%
54 | Cc1cc(NC(=O)/C=C/c2ccc(SC(F)(F)F)cc2)cnc1-n1cnc(Cl)c1Cl [Cpd 275] |  | h % I (1 μM) (human VR1 [2]; [4]): 16%
55 | Cc1cc(NC(=O)/C=C/c2ccc(C(F)(F)F)cn2)cnc1-n1cnc(Cl)c1Cl [Cpd 276] |  | h % I (1 μM) (human VR1 [2]; [4]): 19%
56 | Cc1cc(NC(=O)CCc2ccc(C(F)(F)F)cn2)cnc1-n1cnc(Cl)c1Cl [Cpd 278] |  | h % I (1 μM) (human VR1 [2]; [4]): 36%
57 | O=C(CCc1ccc(F)cc1)Nc1ccc(-n2ccnc2)c(C(F)(F)F)c1 [Cpd 279] |  | h % I (1 μM) (human VR1 [2]; [4]): 30%
58 | Cc1cc(NC(=O)CCc2ccc(F)cc2)cnc1-n1cnc(Cl)c1Cl [Cpd 280] |  | h % I (1 μM) (human VR1 [2]; [4]): 16%
